Test results reported in PubChem BioAssay (NCI).
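Compound exposure: 48 hours, 5 concentrations, 96-well plates. GI50: concentration for 50% inhibition of growth. TGI denotes the concentration required for complete inhibition of growth.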

How the values were obtained:
Experiment in all cases: NCI anticancer screen, dose series, 48 h
786-0 renal = tested on: 786-0 renal
A498 renal = tested on: A498 renal
A549 NSCLC = tested on: A549 NSCLC
ACHN renal = tested on: ACHN renal
BT-549 breast = tested on: BT-549 breast
CAKI-1 renal = tested on: CAKI-1 renal
CCRF-CEM leukemia = tested on: CCRF-CEM leukemia
COLO 205 colon = tested on: COLO 205 colon
DU-145 prostate = tested on: DU-145 prostate
EKVX NSCLC = tested on: EKVX NSCLC
HCC-2998 colon = tested on: HCC-2998 colon
HCT-116 colon = tested on: HCT-116 colon
HCT-15 colon = tested on: HCT-15 colon
HL-60(TB) leukemia = tested on: HL-60(TB) leukemia
HOP-62 NSCLC = tested on: HOP-62 NSCLC
HOP-92 NSCLC = tested on: HOP-92 NSCLC
HS 578T breast = tested on: HS 578T breast
HT29 colon = tested on: HT29 colon
IGROV1 ovarian = tested on: IGROV1 ovarian
K-562 leukemia = tested on: K-562 leukemia
KM12 colon = tested on: KM12 colon
LOX IMVI melanoma = tested on: LOX IMVI melanoma
M14 melanoma = tested on: M14 melanoma
MCF7 breast = tested on: MCF7 breast
MDA-MB-231 breast = tested on: MDA-MB-231 breast
MDA-MB-435 = tested on: MDA-MB-435
MOLT-4 leukemia = tested on: MOLT-4 leukemia
NCI-H226 lung = tested on: NCI-H226 lung
NCI-H23 lung = tested on: NCI-H23 lung
NCI-H460 lung = tested on: NCI-H460 lung
NCI-H522 lung = tested on: NCI-H522 lung
NCI/ADR-RES ovarian = tested on: NCI/ADR-RES ovarian
OVCAR-3 ovarian = tested on: OVCAR-3 ovarian
OVCAR-4 ovarian = tested on: OVCAR-4 ovarian
OVCAR-5 ovarian = tested on: OVCAR-5 ovarian
OVCAR-8 ovarian = tested on: OVCAR-8 ovarian
PC-3 prostate = tested on: PC-3 prostate
RPMI-8226 leukemia = tested on: RPMI-8226 leukemia
RXF 393 renal = tested on: RXF 393 renal
SF-268 CNS = tested on: SF-268 CNS
SF-295 CNS = tested on: SF-295 CNS
SF-539 CNS = tested on: SF-539 CNS
SK-MEL-2 melanoma = tested on: SK-MEL-2 melanoma
SK-MEL-28 melanoma = tested on: SK-MEL-28 melanoma
SK-MEL-5 melanoma = tested on: SK-MEL-5 melanoma
SK-OV-3 ovarian = tested on: SK-OV-3 ovarian
SN12C renal = tested on: SN12C renal
SNB-19 CNS = tested on: SNB-19 CNS
SNB-75 CNS = tested on: SNB-75 CNS
SR leukemia = tested on: SR leukemia
SW-620 colon = tested on: SW-620 colon
T-47D breast = tested on: T-47D breast
TK-10 renal = tested on: TK-10 renal
U251 CNS = tested on: U251 CNS
UACC-62 melanoma = tested on: UACC-62 melanoma
UO-31 renal = tested on: UO-31 renal
UACC-257 melanoma = tested on: UACC-257 melanoma

CCCCCCCC(=O)SCC/C=C/[C@@H]1CC(=O)NCc2cccc(n2)C2=N[C@@](C)(CS2)C(=O)N[C@@H](C(C)C)C(=O)O1
GI50 (786-0 renal): 98.9 nM
TGI (786-0 renal): > 33300 nM
GI50 (A498 renal): 20.2 nM
TGI (A498 renal): 111 nM
GI50 (A549 NSCLC): 36.2 nM
TGI (A549 NSCLC): > 33300 nM
GI50 (ACHN renal): 89.7 nM
TGI (ACHN renal): 693 nM
GI50 (BT-549 breast): 190 nM
TGI (BT-549 breast): > 33300 nM
GI50 (CAKI-1 renal): 174 nM
GI50 (CCRF-CEM leukemia): 112 nM
TGI (CCRF-CEM leukemia): > 33300 nM
GI50 (COLO 205 colon): 85.7 nM
TGI (COLO 205 colon): 337 nM
GI50 (DU-145 prostate): 28.7 nM
TGI (DU-145 prostate): > 33300 nM
GI50 (EKVX NSCLC): 86.9 nM
TGI (EKVX NSCLC): > 33300 nM
GI50 (HCC-2998 colon): 52.8 nM
TGI (HCC-2998 colon): 324 nM
GI50 (HCT-116 colon): 14.8 nM
TGI (HCT-116 colon): 219 nM
GI50 (HCT-15 colon): 249 nM
TGI (HCT-15 colon): > 33300 nM
GI50 (HL-60(TB) leukemia): 126 nM
TGI (HL-60(TB) leukemia): > 33300 nM
GI50 (HOP-62 NSCLC): 25.2 nM
TGI (HOP-62 NSCLC): > 33300 nM
GI50 (HOP-92 NSCLC): 84.1 nM
TGI (HOP-92 NSCLC): 520 nM
GI50 (HS 578T breast): 20.9 nM
TGI (HS 578T breast): > 10100 nM
GI50 (HT29 colon): 25.6 nM
TGI (HT29 colon): > 33300 nM
GI50 (IGROV1 ovarian): 26.3 nM
TGI (IGROV1 ovarian): 525 nM
GI50 (K-562 leukemia): 82.9 nM
TGI (K-562 leukemia): > 33300 nM
GI50 (KM12 colon): 71.9 nM
TGI (KM12 colon): 5950 nM
GI50 (LOX IMVI melanoma): 50.1 nM
TGI (LOX IMVI melanoma): 193 nM
GI50 (M14 melanoma): 34.8 nM
TGI (M14 melanoma): > 33300 nM
GI50 (MCF7 breast): 82.7 nM
TGI (MCF7 breast): > 33300 nM
GI50 (MDA-MB-231 breast): 119 nM
TGI (MDA-MB-231 breast): > 19800 nM
GI50 (MDA-MB-435): 29.2 nM
TGI (MDA-MB-435): > 12500 nM
GI50 (MOLT-4 leukemia): 70.2 nM
TGI (MOLT-4 leukemia): > 33300 nM
GI50 (NCI-H226 lung): 210 nM
TGI (NCI-H226 lung): > 9230 nM
GI50 (NCI-H23 lung): 85.8 nM
TGI (NCI-H23 lung): > 33300 nM
GI50 (NCI-H460 lung): 16.7 nM
TGI (NCI-H460 lung): > 33300 nM
GI50 (NCI-H522 lung): 19.2 nM
TGI (NCI-H522 lung): 845 nM
GI50 (NCI/ADR-RES ovarian): 319 nM
TGI (NCI/ADR-RES ovarian): > 33300 nM
GI50 (OVCAR-3 ovarian): 87.7 nM
TGI (OVCAR-3 ovarian): 1070 nM
GI50 (OVCAR-4 ovarian): 150 nM
TGI (OVCAR-4 ovarian): > 33300 nM
GI50 (OVCAR-5 ovarian): 25.4 nM
TGI (OVCAR-5 ovarian): > 33300 nM
GI50 (OVCAR-8 ovarian): 25.3 nM
TGI (OVCAR-8 ovarian): > 33300 nM
GI50 (PC-3 prostate): 43.7 nM
TGI (PC-3 prostate): > 33300 nM
GI50 (RPMI-8226 leukemia): 193 nM
TGI (RPMI-8226 leukemia): > 33300 nM
GI50 (RXF 393 renal): 53.4 nM
TGI (RXF 393 renal): 207 nM
GI50 (SF-268 CNS): 98.6 nM
TGI (SF-268 CNS): > 28000 nM
GI50 (SF-295 CNS): 62.3 nM
TGI (SF-295 CNS): 546 nM
GI50 (SF-539 CNS): 56.3 nM
TGI (SF-539 CNS): > 33300 nM
GI50 (SK-MEL-2 melanoma): 36.9 nM
TGI (SK-MEL-2 melanoma): 881 nM
GI50 (SK-MEL-28 melanoma): 31.2 nM
TGI (SK-MEL-28 melanoma): 3010 nM
GI50 (SK-MEL-5 melanoma): 27.1 nM
TGI (SK-MEL-5 melanoma): 115 nM
GI50 (SK-OV-3 ovarian): 28.4 nM
TGI (SK-OV-3 ovarian): 596 nM
GI50 (SN12C renal): 145 nM
TGI (SN12C renal): > 33300 nM
GI50 (SNB-19 CNS): 191 nM
TGI (SNB-19 CNS): > 33300 nM
GI50 (SNB-75 CNS): 29 nM
TGI (SNB-75 CNS): > 33300 nM
GI50 (SR leukemia): 62.3 nM
TGI (SR leukemia): > 33300 nM
GI50 (SW-620 colon): 92.1 nM
TGI (SW-620 colon): 3720 nM
GI50 (T-47D breast): 147 nM
TGI (T-47D breast): 1600 nM
GI50 (TK-10 renal): 26.2 nM
TGI (TK-10 renal): 361 nM
GI50 (U251 CNS): 80.2 nM
TGI (U251 CNS): 782 nM
GI50 (UACC-62 melanoma): 17.5 nM
TGI (UACC-62 melanoma): 128 nM
GI50 (UO-31 renal): 64.7 nM
TGI (UO-31 renal): 1030 nM

O=c1oc2cc(O)ccc2c(O)c1C(c1ccc2ccccc2c1)c1c(O)c2ccc(O)cc2oc1=O
TGI (786-0 renal): > 100000 nM
TGI (A498 renal): > 100000 nM
TGI (A549 NSCLC): > 100000 nM
TGI (BT-549 breast): > 100000 nM
TGI (CAKI-1 renal): > 100000 nM
TGI (CCRF-CEM leukemia): > 100000 nM
TGI (COLO 205 colon): > 100000 nM
TGI (DU-145 prostate): > 100000 nM
TGI (EKVX NSCLC): > 100000 nM
TGI (HCC-2998 colon): > 100000 nM
TGI (HCT-116 colon): > 100000 nM
TGI (HCT-15 colon): > 100000 nM
TGI (HL-60(TB) leukemia): 69200 nM
TGI (HOP-62 NSCLC): > 100000 nM
TGI (HOP-92 NSCLC): > 100000 nM
TGI (HS 578T breast): 59700 nM
TGI (HT29 colon): > 100000 nM
TGI (IGROV1 ovarian): > 100000 nM
TGI (K-562 leukemia): > 100000 nM
TGI (KM12 colon): > 100000 nM
TGI (LOX IMVI melanoma): > 100000 nM
TGI (M14 melanoma): > 100000 nM
TGI (MCF7 breast): > 100000 nM
TGI (MDA-MB-231 breast): > 100000 nM
TGI (MDA-MB-435): > 100000 nM
TGI (MOLT-4 leukemia): > 100000 nM
TGI (NCI-H226 lung): > 100000 nM
TGI (NCI-H23 lung): > 100000 nM
TGI (NCI-H460 lung): > 100000 nM
TGI (NCI-H522 lung): > 100000 nM
TGI (NCI/ADR-RES ovarian): > 100000 nM
TGI (OVCAR-3 ovarian): > 100000 nM
TGI (OVCAR-5 ovarian): > 100000 nM
TGI (OVCAR-8 ovarian): > 100000 nM
TGI (PC-3 prostate): > 100000 nM
TGI (RPMI-8226 leukemia): 85200 nM
TGI (RXF 393 renal): > 100000 nM
TGI (SF-268 CNS): 33500 nM
TGI (SF-295 CNS): > 100000 nM
TGI (SF-539 CNS): > 100000 nM
TGI (SK-MEL-2 melanoma): > 100000 nM
TGI (SK-MEL-28 melanoma): > 100000 nM
TGI (SK-MEL-5 melanoma): > 100000 nM
TGI (SK-OV-3 ovarian): > 100000 nM
TGI (SN12C renal): > 100000 nM
TGI (SNB-19 CNS): 49300 nM
TGI (SNB-75 CNS): 37700 nM
TGI (SR leukemia): 67100 nM
TGI (SW-620 colon): > 100000 nM
TGI (T-47D breast): > 100000 nM
TGI (TK-10 renal): > 100000 nM
TGI (U251 CNS): > 100000 nM
TGI (UACC-257 melanoma): > 100000 nM
TGI (UACC-62 melanoma): > 100000 nM
TGI (UO-31 renal): 31700 nM
